Drawing on PubChem BioAssay (NCI), this text covers GI50 and TGI for eight compounds.

Among the test systems are SNB-75 CNS; SN12C renal; HCT-15 colon; OVCAR-3 ovarian; MDA-MB-231 breast; M14 melanoma; SK-MEL-2 melanoma; MDA-MB-435; MCF7 breast; SW-620 colon.
Holding throughout (experiment): NCI tumour cell line growth inhibition, 48 h

Structures are written as SMILES. Several values for one entry are separate records, joined by “and”; a condition that tells them apart may be missing. Equal entries are not always repeated.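 Each compound was tested at five concentrations against cells in 96-well plates for 48 hours. GI50 = concentration required for 50% inhibition of growth. TGI marks complete inhibition of growth.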 Where only a bound is given, the exact number is not on record here.

In the case of `COc1cc(C2c3cc4c(cc3C(OC(=O)C[n+]3ccccc3)C3COC(=O)C23)OCO4)cc(OC)c1OC` (centres undefined), the GI50 in the assay on SNB-75 CNS was 1330 nM; with SN12C renal, < 24.7 nM; in the assay with HCT-15 colon, < 17.1 nM; in the assay with OVCAR-3 ovarian, < 16 nM; in the assay with MDA-MB-231 breast, < 21.4 nM; with M14 melanoma it was < 17 nM. Further, the GI50 with SK-MEL-2 melanoma was < 10 nM; with MDA-MB-435, < 10 nM; in the assay on MCF7 breast, < 14 nM; with SW-620 colon, < 20.3 nM. For the same compound, the TGI in the assay with SNB-75 CNS was > 100000 nM; in the assay on SN12C renal it was > 100000 nM; in the assay with HCT-15 colon, > 100000 nM; with OVCAR-3 ovarian, < 25.5 nM; in the assay with MDA-MB-231 breast, > 22400 nM; in the assay on M14 melanoma, > 100000 nM. Moreover, the TGI in the assay with SK-MEL-2 melanoma was > 100000 nM; in the assay with MDA-MB-435, < 10 nM; with MCF7 breast, > 100000 nM; in the assay on SW-620 colon it was > 100000 nM.

In the case of `CN1CCN(Cc2ccc(NC(=O)c3cncc(C#Cc4cnc(N)c5cccnc45)c3)cc2C(F)(F)F)CC1`, the GI50 with SNB-75 CNS is 469 nM; in the assay on SN12C renal it was 311 nM; in the assay with HCT-15 colon it was 1850 nM; with OVCAR-3 ovarian, 589 nM; in the assay with MDA-MB-231 breast, 137 nM; in the assay on M14 melanoma, 143 nM. The GI50 in the assay with SK-MEL-2 melanoma was 120 nM; with MDA-MB-435 it was 150 nM; in the assay with MCF7 breast, 690 nM; in the assay on SW-620 colon, 262 nM. For the same compound, the TGI in the assay on SNB-75 CNS is > 12000 nM; in the assay on SN12C renal, > 50000 nM; with HCT-15 colon, > 50000 nM; with OVCAR-3 ovarian, > 50000 nM; in the assay with MDA-MB-231 breast, 975 nM; in the assay with M14 melanoma, 604 nM. In addition, the figures for the TGI with SK-MEL-2 melanoma, with MCF7 breast and in the assay with SW-620 colon were 332 nM, > 50000 nM and 2900 nM, respectively.

On to `c1ccc(CNCCN(CCNCc2ccccn2)Cc2ccc3ccccc3c2)nc1`, for which the GI50 was 2030 nM with SNB-75 CNS; 3210 nM in the assay with SN12C renal; 1160 nM in the assay on HCT-15 colon; 1830 nM with OVCAR-3 ovarian; 1680 nM with MDA-MB-231 breast; 1640 nM in the assay with M14 melanoma. Besides, the GI50 was 1990 nM with MDA-MB-435, 2860 nM with MCF7 breast and 2360 nM in the assay on SW-620 colon. Also, the TGI in the assay on SNB-75 CNS is 9980 nM; in the assay with SN12C renal it was 11100 nM; with HCT-15 colon it was 5010 nM; in the assay on OVCAR-3 ovarian, 3740 nM; in the assay on MDA-MB-231 breast, 3810 nM; with M14 melanoma, 3390 nM. In addition, the TGI worked out at 4080 nM in the assay on MDA-MB-435, 10500 nM with MCF7 breast and 6320 nM in the assay with SW-620 colon.

As for `Oc1c(Cl)cc(Cl)c2ccc(Cn3cc(-c4ccc(C(F)(F)F)cc4)nn3)nc12`, the GI50 in the assay with SNB-75 CNS was 1740 nM; in the assay with SN12C renal, 2910 nM; in the assay on HCT-15 colon, 1420 nM; with OVCAR-3 ovarian, 1330 nM; in the assay with MDA-MB-231 breast, 2190 nM; in the assay with M14 melanoma it was 1930 nM. The figures for the GI50 with SK-MEL-2 melanoma, in the assay with MDA-MB-435 and with SW-620 colon were 2670 nM, 1760 nM and 493 nM, respectively. In addition, the TGI was determined as 10800 nM in the assay with SNB-75 CNS; 11600 nM with SN12C renal; 3300 nM in the assay on HCT-15 colon; 2740 nM with OVCAR-3 ovarian; 6810 nM in the assay with MDA-MB-231 breast; 5260 nM with M14 melanoma. Moreover, the TGI with SK-MEL-2 melanoma came to 7650 nM; in the assay with MDA-MB-435, 3750 nM; in the assay with SW-620 colon, 1830 nM.

Regarding `Clc1ccccc1-c1nnc2c(Cc3ccccc3)nc3ccccc3n12`, the GI50 in the assay on SNB-75 CNS was 3780 nM; with SN12C renal, > 100000 nM; with HCT-15 colon, 1560 nM; with OVCAR-3 ovarian, 22800 nM; in the assay with MDA-MB-231 breast, 7090 nM; in the assay on M14 melanoma, > 60500 nM. For the same compound, the GI50 was 59400 nM with SK-MEL-2 melanoma, > 100000 nM with MDA-MB-435, 34000 nM with MCF7 breast and 20700 nM with SW-620 colon. Besides, the TGI was 40300 nM with SNB-75 CNS; > 100000 nM in the assay on SN12C renal; > 100000 nM in the assay with HCT-15 colon; > 100000 nM in the assay with OVCAR-3 ovarian; > 100000 nM with MDA-MB-231 breast; > 100000 nM in the assay on M14 melanoma. The TGI in the assay on SK-MEL-2 melanoma, with MDA-MB-435, in the assay with MCF7 breast and with SW-620 colon was > 100000 nM each time.

As to `CC(=O)c1cc(C(=O)c2ccc3c(c2)Sc2ccccc2N3)n2ccccc12`, the TGI in the assay on SN12C renal is > 33200 nM; in the assay on HCT-15 colon it was > 33200 nM; in the assay with M14 melanoma, > 33200 nM; with MDA-MB-435, 4.53 nM and < 3.32 nM; with MCF7 breast, > 33200 nM; with SW-620 colon, > 33200 nM. Further, the GI50 with HCT-15 colon was 4.72 nM and 3.32 nM; with OVCAR-3 ovarian it was 3.65 nM; in the assay with MDA-MB-231 breast it was 6.51 nM and 20.3 nM; with M14 melanoma it was 3.38 nM and 3.32 nM; in the assay with SK-MEL-2 melanoma, 4.77 nM; in the assay with MDA-MB-435, 1.8 nM and < 3.32 nM. In addition, the GI50 in the assay with MCF7 breast was 3.44 nM and 3.32 nM; in the assay on SW-620 colon, 3.63 nM and 3.32 nM.

Turning to `CO[C@H]1CC(O[C@@H]2/C(C)=C/C[C@@H]3C[C@@H](C[C@]4(CC[C@H](C)[C@@H](C5CCCCC5)O4)O3)OC(=O)[C@@H]3C=C(C)/C(=N/O)[C@H]4OC/C(=C\C=C\[C@@H]2C)[C@]43O)O[C@@H](C)C1O` (some centres undefined), the GI50 was 867 nM in the assay with SNB-75 CNS; 889 nM with SN12C renal; 873 nM in the assay with HCT-15 colon; 864 nM with OVCAR-3 ovarian; 768 nM in the assay on MDA-MB-231 breast; 1500 nM with M14 melanoma. For the same compound, the GI50 in the assay on SK-MEL-2 melanoma is 1180 nM; in the assay on MDA-MB-435, 1050 nM; with MCF7 breast it was 972 nM; in the assay on SW-620 colon, 777 nM. Further, the TGI with SNB-75 CNS worked out at 2570 nM; with SN12C renal, 1850 nM; in the assay with HCT-15 colon, 1950 nM; in the assay on OVCAR-3 ovarian, 1620 nM; in the assay with MDA-MB-231 breast it was 1590 nM; in the assay with M14 melanoma it was 4620 nM. Further, the TGI with SK-MEL-2 melanoma is 2680 nM; in the assay with MDA-MB-435, 2410 nM; in the assay with MCF7 breast, 2460 nM; in the assay with SW-620 colon, 1500 nM.

`O=C1C=CC(=O)c2c(O)c3c(c(O)c21)C[C@H](O)[C@H](O)[C@@H]3O`: the TGI with SNB-75 CNS worked out at 7990 nM; in the assay on SN12C renal it was 3820 nM; with HCT-15 colon, 7190 nM; in the assay on OVCAR-3 ovarian, 3880 nM; with MDA-MB-231 breast it was 6080 nM; in the assay on M14 melanoma it was 3860 nM. For the same compound, the TGI came out at 3430 nM in the assay on SK-MEL-2 melanoma, 3130 nM in the assay with MDA-MB-435, 3490 nM in the assay on MCF7 breast and 2370 nM with SW-620 colon.
